Test results reported in US11197908B2, “Peptoids and methods for attenuating inflammatory response” (THE BOARD OF TRUSTEES OF THE UNIVERSITY OF ARKANSAS, priority 2018, dated 2021).
Read-outs that look alike come from different tables or passages of the source. Where a SMILES comes first, the peptide text is derived from it. [ ]: non-standard residue; d: D form. N(1S-Me-propyl)Gly = CC[C@H](C)NCC(=O)O; Nspe = C[C@H](NCC(=O)O)c1ccccc1; Nlys = NCCCCNCC(=O)O

Experiments:
[1] = system: IL-1β; assay: IL-1β in supernatant of THP-1 macrophages co-incubated with peptoid and LPS (ELISA); assay type: cell-based, human; settings: peptoid 50 μM with 2 ng/mL LPS, 3 days; vs LPS alone
Protocol: THP-1 monocytes were differentiated into macrophages through exposure to phorbol 12-myristate 13-acetate (PMA) for three days prior to experimentation 10. […] Upon differentiation, these cells were then incubated (3 days) with media containing JPT1a (50, 10, or 2 μM) alone or JPT1a (50, 10, or 2 μM) in the presence of low-dose (2 ng/mL) lipopolysaccharide (LPS) as a chronic pro-inflammatory stimulus 11. Treatment with 2 ng/mL LPS alone served as a positive control, while treatment with an equivalent volume of buffer diluted into media served as the vehicle. Cellular supernatant was harvested on day 3 12; these samples were immediately centrifuged at 1200 rpm for 10 min at 25° C. to remove any cells or debris. […] All multi-channel images were converted to TIFF file format via ImageJ64 software for quantitative image analysis using a custom subroutine written in Matlab™ software to obtain the average RAGE expression per volume of cells, and the data generated was assessed for statistical significance using GraphPad Prism 7.0 software 15.
As shown in FIGS. 2B-2D, THP-1 macrophages were treated with JPT1a alone (white) or in the presence of a chronic low-dose (2 ng/mL) of LPS (grey), for 3 days prior to supernatant harvest and storage. Examination of the supernatant via ELISA determined the concentrations of (FIG. 2B) IL-1β, (FIG. 2C) IL-6, and (FIG. 2D) IL-8. […]

[2] = system: IL-1β; assay: IL-1β expression in previously LPS-stimulated THP1 macrophages (ELISA); assay type: cell-based, human; settings: 25, 5, 1 μM added after 48 h of 2 ng/mL LPS, additional 24 h
Protocol: THP-1 monocytes were differentiated as described above 20. Upon differentiation, these cells were then incubated (48 h) with media containing low-dose (2 ng/mL) LPS as a chronic pro-inflammatory stimulus 21. Following incubation, JPT1a or JPT1 was added for final concentrations of 25, 5, and 1 μM 22, and cells were incubated an additional 24 h. Treatment with 2 ng/mL LPS alone served as a positive control, while treatment with an equivalent volume of buffer diluted into media served as the vehicle. Media was collected for later assessment of cytokines via ELISA as described above 23. Cells were fixed and stained for RAGE, phalloidin (cytoplasmic marker), and DAPI (nuclear marker) 24. Each channel was imaged with a Zeiss LSM 510 META Confocal Scanning Laser Microscope using a plan-neofluar 40×/1.3 oil DIC immersion objective; three of these multi-channel images were obtained from each slide in each experiment. 25 All multi-channel images were converted to TIFF file format via ImageJ64 software for quantitative image analysis using a custom subroutine written in Matlab™ software to obtain the average RAGE expression per volume of cells, and the data generated was assessed for statistical significance using GraphPad Prism 7.0 software 26.
As shown in FIGS. 4B-4D, THP1 macrophages were treated with low-dose LPS at 2 ng/mL. […]

[3] = target: RAGE (Homo sapiens, UniProt Q15109); assay: Binding affinity for RAGE from binding equilibrium attained in solution (competition ELISA); settings: 20 nM RAGE, JPT1a 0 to 1000 nM, overnight
RAGE, sequence (Q15109 23-404): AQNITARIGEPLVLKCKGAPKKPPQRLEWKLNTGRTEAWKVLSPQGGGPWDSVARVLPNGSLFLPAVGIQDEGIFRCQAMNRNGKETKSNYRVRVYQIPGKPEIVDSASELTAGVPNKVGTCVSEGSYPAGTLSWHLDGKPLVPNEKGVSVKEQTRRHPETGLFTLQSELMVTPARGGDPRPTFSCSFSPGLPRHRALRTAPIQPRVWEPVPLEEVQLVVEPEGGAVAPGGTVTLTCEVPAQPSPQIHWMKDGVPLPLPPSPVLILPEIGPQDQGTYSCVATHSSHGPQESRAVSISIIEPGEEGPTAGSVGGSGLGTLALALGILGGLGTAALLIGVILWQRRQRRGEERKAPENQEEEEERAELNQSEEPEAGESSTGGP
Protocol: Definitive binding affinity of JPT1a for RAGE was determined from binding equilibrium attained in solution. As shown in FIGS. 8A-8B, 96-well plates coated with 500 nM JPT1a were treated with overnight incubations containing 20 nM RAGE and JPT1a in concentrations ranging from 0 nM to 1000 nM. Absorbance values were used to calculate relative [RAGE]bound and [RAGE]free via the […] (Friguet B, Chaffotte A F, Djavadi-Ohaniance L, Goldberg M E. Measurements of the true affinity constant in solution of antigen-antibody complexes by enzyme-linked immunosorbent assay. J Immunol Methods. 1985; 77(2):305-319; Rath S, Stanley C M. An inhibition enzyme immunoassay for estimating relative antibody affinity and affinity heterogeneity. 1988; 106:245-249; Newton P, Harrison P, Clulow S. A Novel Method for Determination of the Affinity of Protein: Protein Interactions in Homogeneous Assays. 2008:674-682). FIG. 8A. […] Black dashed lines indicate 95% confidence interval, and gray dashed lines indicate 95% prediction interval, n=4. FIG. 8B. […] Dashed lines indicate 95% confidence interval, n=3.

[4] = target: T1, Aβ1-40 (Homo sapiens, UniProt P05067); settings: cited from earlier work
T1 construct: modulate Aβ1-40 aggregation
T1 sequence (P05067 672-711 limits assumed): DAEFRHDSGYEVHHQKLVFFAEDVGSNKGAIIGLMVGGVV

Kd ([3]; n=3, read-out: Kd, plot of specific binding (one epitope)): 79 ± 28.4 nM
Kd ([3]; n=4, read-out: binding affinity for RAGE (Scatchard plot)): 139 nM
SMILES: CC[C@H](C)N(CC(=O)N(CC(=O)N(CC(=O)N(CC(=O)N(CC(=O)N(CC(=O)N(CC(N)=O)[C@@H](C)c1ccccc1)[C@@H](C)c1ccccc1)[C@@H](C)CC)[C@@H](C)c1ccccc1)[C@@H](C)c1ccccc1)[C@@H](C)CC)C(=O)CNCCCCN [JPT1a] (H-[Nlys][N(1S-Me-propyl)Gly][N(1S-Me-propyl)Gly][Nspe][Nspe][N(1S-Me-propyl)Gly][Nspe][Nspe]-NH2)
LPS-induced production of IL-1β [1]: significantly attenuates
IL-1β production of previously stimulated macrophages [2]: does not affect cytokine production
Aβ1-40 aggregation [4]: capacity to modulate Aβ1-40 aggregation
